Results: patent publication US20130028959A1, “Liposomes for Preventing the Spread of HIV” (Massachusetts Institute of Technology, priority 2009, published 2013)

Assay: Surface charge of lipids used to make liposomes
Type: physicochemical
Details: lipid used to make liposomes

## Phosphatidylcholine [Phosphatidylcholine (PC)]
  Relative charge: No
